Data from a melting point compilation (Tetko et al.; mined from patent text by program, amines drawn as free bases though some values may be those of a salt).

Structure (SMILES) | melting point [°C]
COc1cc2c(CC#N)c[nH]c2cc1F | 97 to 98
COc1ccc(N(c2ccc(-c3ccc(N(c4ccc(OC)cc4)c4cccc(C(F)(F)F)c4)cc3)cc2)c2cccc(C(F)(F)F)c2)cc1 | 134
Cc1cc(N2CCNCC2)ccn1 | 93 to 94
COc1cc(COc2nn(-c3ccccc3)cc2C=O)ccc1OCc1nc(-c2ccco2)oc1C | 137 to 138
OC[C@H]1OC(O)[C@H](O)[C@H](F)[C@@H]1O (some centres undefined) | 120 to 122
CCNc1nc(C)c(C(=O)OCC)c(NCCCN(C)C)c1[N+](=O)[O-] | < 20
O=C(c1ccccc1)c1cc2c(s1)S(=O)(=O)CCc1cc(=O)n(-c3ccc(Cl)cc3)nc1-2 | 254 to 256
CN1CCC(=C2c3cc(C=O)n(C)c3CCn3ncnc32)CC1 | 204
O=c1[nH]c2cc(Cl)c(Cl)cc2[n+]([O-])c1-c1ccccc1O | 266 to 268
NCCCN1CCOC(c2ccccc2)(c2ccccc2)CC1 | 68 to 70
CC(=O)N1C(C)(C)CC(OC(=O)C(Cc2cc(C(C)(C)C)c(O)c(C(C)(C)C)c2)(Cc2cc(C(C)(C)C)c(O)c(C(C)(C)C)c2)C(C)=O)CC1(C)C | 165 to 166
COc1cc2c(cc1OC)CN(CCCOc1ccc(NC(=O)c3cccc4c(=O)c5ccccc5sc34)cc1)CC2 | 210
CN1C(=O)[C@@H](NC(=O)C2CCCCC2)N=C(c2ccccc2)c2ccccc21 | 212 to 214
CCCN(CCC)c1nc2c(N3CCSCC3)nccc2c(=O)[nH]1 | 226
CC(=O)Nc1cnc(-c2cc(Cl)cc(Cl)c2Cl)c(NC(=O)C(C)C)n1 | 230 to 232
Cc1c(N2C(=O)[C@H]3[C@@H](O)CCN3C2=O)ccc(C#N)c1Cl | 237 to 238
CCOC(=O)c1cc2c(CC)nc(CC)cc2n(Cc2ccc(-c3ccccc3-c3nnn(C(c4ccccc4)(c4ccccc4)c4ccccc4)n3)cc2)c1=O | 110 to 112
CCCC12CCC(=O)C=C1c1c(cc(OC)c(Cl)c1Cl)C2O (centres undefined) | 173 to 175
CCN(CC)CCNC(=O)c1cc(I)cc2c(F)ccnc12 | 79 to 81
COc1cccc(S)c1S(N)(=O)=O | 166
O=C1CN=C(c2ccccc2Cl)c2cc(I)sc2N1 | 229 to 231

Structure (SMILES) | melting point [°C]
CSC1CC(=O)N1CC(=O)CS(=O)(=O)c1ccccc1 (centres undefined) | 82 to 84
Cc1ccc(OC2COc3ccc(OCc4ccc5ccccc5n4)cc3C2O)cn1 (centres undefined) | 134 to 136
COc1cc(CCC(=O)c2c(OC)cc(OC)c(CCC(C)C)c2OCC(=O)O)ccc1O | 87 to 88
COC(=N[N+](=O)[O-])NCc1ccc(Cl)nc1 | 112 to 113
OCC1CCN(c2nc3ccccc3s2)CC1 | 76 to 80
CN(C(=O)On1nc(Br)c(Br)c1Br)c1ccccc1 | 115 to 119
CCN(CC)C(=O)n1cnc(S(=O)(=O)CC2CCCCCC2)n1 | 46 to 51
Cn1cccc1CN1CCCC1=O | 44.5 to 47.5
C=CCN1CCN(c2cc(-c3ccccc3)c3ccc(=O)ccn23)CC1 | 125
C1CNCCN2CCOCCOCCN(CCN1)CCOCCOCC2 | 69
Cc1nc(N(C)C=O)sc1C(=O)CBr | 80 to 82
CCOCn1c(N)c(C#N)c2c(N)ncnc21 | 229 to 230
N#Cc1cccc(C(=O)NC2CCCNC(=O)C2)c1 (centres undefined) | 221 to 222
COc1ccc(-n2nc(C(=O)NC(C)(C)C)c3c2C2CCC3C2)cc1 (centres undefined) | 145 to 147
CCOC(=O)CC(=O)CCCn1cncn1 | 114 to 116
CN1CC(O)c2cc(S(N)(=O)=O)sc2S1(=O)=O (single isomer, unassigned; (+)) | 168
CCC1CN(Cc2ccccc2)c2c3c(nc4cccc(c24)O1)CCCC3 (centres undefined) | 148 to 149
Cc1nn(-c2ccccn2)c2nc3cc(F)c(F)cc3c(Cl)c12 | 175 to 176
CCN1C(=O)CCC2(CCC(=O)c3ccccc32)C1=O (centres undefined) | 85.5 to 89
COCc1cc(Cl)n2nc(SCc3ccccc3)nc2n1 | 79
COc1ccccc1N1CCN(CCc2c(C)c3ccc(OC)c(OC)c3oc2=O)CC1 | 146 to 148

Structure (SMILES) | melting point [°C]
O=C(NN1CCOCC1)OCCOc1ccc(OCCOC(=O)NN2CCOCC2)cc1 | 219 to 221
CC(C)(C)OC(=O)C[C@@H](CC1CCCC1)C(=O)N1C(=O)OC[C@@H]1Cc1ccccc1 | 113 to 119
O=C(O)COc1cc2cc(C3CCCCC3)sc2c(Cl)c1Cl | 167 to 168
O=C1CCCCN1[C@@H]1c2cc(C(F)(F)F)ccc2OC(CF)(CF)[C@H]1O (relative stereo) | 184 to 187
COC(=O)c1c(Cc2ccc(S(=O)(=O)N3CCN(C)CC3)cc2)c(=O)c2ccc(Cl)cc2n1-c1ccccc1 | 223 to 227
CCCCC1=NOC(Cc2ccccc2)C(=O)N1 (centres undefined) | 82 to 85
CCCCOc1c(CNC(=O)OC(C)(C)C)n(CC2CC2)c(=O)c2ccc(C(N)=O)cc12 | 202 to 203
O=C1Cc2c(CCO)cccc2N1 | 145 to 147
Cc1cc2c(cc1Br)C(O)CC(C)(C)O2 (centres undefined) | 92 to 93
Cn1cc(C2=C(c3c4n(c5ccccc35)CCC(CCN)C4)C(=O)NC2=O)c2ccccc21 (centres undefined) | 160 to 165
CC(C)(C)C(O)(Cn1cncn1)C(Cl)=CCl (centres undefined) | 49 to 52
NC(=O)c1ccc(-c2ccc(C(CC3CCOCC3)c3ccc(S(=O)(=O)C4CC4)cc3)[nH]2)nc1 (centres undefined) | 136 to 138
CCOc1cc(N)c(Cl)cc1C(=O)NC[C@H]1CN(CC2CCN(C(=O)N(C)OC)CC2)CCO1 | 127 to 129
CNC(=O)C(Cc1ccc(OC)cc1)NC(=O)C(CC(C)C)C(CC(=O)NCC(=O)OC(C)(C)C)SC(C)=O (centres undefined) | 192 to 194
COc1ccc(COCc2nnc3n2-c2ccc(Cl)cc2C(c2ccccc2Cl)=NC3)cc1 | 235 to 237
CC1C=CC(=O)OC1=O (centres undefined) | 70 to 72
CCCCc1ccc(NS(=O)(=O)c2ccc(N3CCNC3=O)cc2)cc1 | 203 to 205
N#Cc1ccc(N2C(=O)N(CCF)C3(CCOCC3)C2=O)cc1C(F)(F)F | 192 to 193
Cn1c(=O)n(-c2cc([N+](=O)[O-])c(Cl)cc2F)c(=S)n1C | 146
CS(=O)(=O)Nc1cnn(CCCCN2CCN(c3ncccn3)CC2)c1 | 132

Continued, values first:

melting point [°C] | Structure (SMILES)
285 | Nc1cc(C(=O)O)cc(S(N)(=O)=O)c1Sc1ccccc1
171 | CC(C)(C)c1cc(SCc2ccc(C(=O)O)cc2)cc(C(C)(C)C)c1O
60 | CC(=O)OC1CSC(Oc2cccc(-c3cnoc3C)c2)C(OC(C)=O)C1OC(C)=O (centres undefined)
166 | Cc1ccc(S(=O)(=O)N2[C@@H](C(=O)O)CC[C@H]2c2ccc(F)cc2)cc1 (racemic)
188 to 189 | COC(=O)C(=O)c1ccc(OCCOc2ccc3cc4ccccc4cc3c2)cc1
74.5 to 76 | COc1ccc(/C=C2\C3=C(CCCC3)CCN2C(C)=O)cc1
173 to 175 | CC(=O)Nc1c(C(=O)c2ncccc2C)[nH]c2cc(Cl)ccc12
157 to 158 | O=C(CCc1oc(-n2cncn2)nc1-c1ccc(Cl)cc1)NCCCl
156 to 158 | CN1CCN(C2Cc3ccc(Cl)cc3Sc3cc(F)ccc32)CC1 (centres undefined)
182 to 184 | Cc1c(OCCn2ccnc2)ccc2c1CC/C(=C\c1cccs1)C2=O
200 to 202 | CS(=O)(=O)c1ccc(-c2cnn(-c3ccsc3)c(=O)c2-c2ccc(F)cc2)cc1
140 | CCCCSc1nnc(-c2ccc([N+](=O)[O-])cc2)s1
212 to 214 | O=Cc1c2ccccc2c(Cl)c2cc3ccccc3cc12
> 250 | Cc1ccsc1-c1ccc(C(C)(N)C(=O)O)cc1 (centres undefined)
230 to 231 | CNc1cc(N2CCN(C(=O)N3CCN(S(=O)(=O)c4ccc(C(F)(F)F)cc4)CC3)CC2)ncn1
142 to 144 | CC(=O)Nc1ccc(S(=O)(=O)NCCN2[C@H](C)Cc3ccsc3[C@@H]2C)cc1 (relative stereo)
196 to 199 | O=C(CNc1ccc2[nH]c(=O)sc2c1)N1CCC(Cc2ccccc2)CC1
340 to 342 | O=C1CC(c2ccc(O)cc2)=Nc2ccc(N3CCOCC3)cc21
282 to 284 | COc1cc(C(=O)O)ccc1OC(=O)c1ccc(OC)c(C23CC4CC(CC(C4)C2)C3)c1

melting point [°C] | Structure (SMILES)
186 to 188 | COc1ccc(-n2nc(CCC(=O)NCC(=O)O)cc2-c2ccc(Cl)cc2)cc1
146 to 148 | Cc1c(C(=O)O)cccc1-n1cccc1
135 to 137 | Cc1ccccc1N1CCc2nnc3c(C)cccc3c21
179 | COc1cc(Nc2nccc(-c3ccc(Br)cc3)n2)cc(OC)c1OC
55 to 57 | COC(=O)C(C)Oc1ccc(Oc2ccc(Cl)cc2F)cc1 (centres undefined)
136 to 137 | O=c1ccoc2cc(O)ccc12
127 to 130 | O=C(NNC(=O)C(F)(F)C(O)(Cn1cncn1)c1ccc(F)cc1F)c1ccc(F)cc1 (centres undefined)
162 to 163 | O=C(N[C@H](Cc1ccc(C(F)(F)F)cc1)[C@H](O)c1ccc(F)cc1)c1ccc(C(F)(F)F)cc1 (racemic)
195 to 196 | CNC(=O)c1cc2c(Oc3ccc(CO)cc3)cncc2s1
141 | O=C(O)CCCc1cc2nc(Cl)ccc2n1S(=O)(=O)c1ccc(-c2cccnc2)cc1
128 to 129 | COc1ccc(OC(=O)[C@H](C)NC(=O)OCc2ccccc2)cc1
146 to 147 | C=CCOc1ccccc1S(=O)(=O)NC(=O)Nc1nc(C)nc(OC)n1
107 to 108 | CC(C)(C)[Si](C)(C)Oc1ccc(NC(=O)CCl)cc1
258 to 260 | N#Cc1ccc(CN2c3ccc(Cl)cc3C=C(C(=O)O)C2C(F)(F)F)cc1 (centres undefined)
204 to 206 | CC(C)c1csc(/C=C/c2cc(NC(=O)Cc3ccccc3C(=O)O)ccc2Cl)n1
176 to 177 | CCCCc1nc(SC)c(C(C)=O)n1Cc1ccc(-c2ccccc2S(=O)(=O)NC(=O)NCCC)cc1
55 | C#Cc1ccc2sccc2c1
96 to 98 | C=C(C)C(=O)NC(=O)NCc1ccccc1
